# From PubChem BioAssay (NCI)
#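 Dose response: 5 concentrations. Exposure: 48 h. Format: 96-well plates. Endpoint: linear interpolation; highest concentration if not reached. GI50 marks 50% less growth. Definition used: TGI = concentration required for complete inhibition of growth.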
# Tests used:
# Experiment in all cases: DTP human tumour cell line panel, 48 h
# IGROV1 ovarian = test system: IGROV1 ovarian
# EKVX NSCLC = test system: EKVX NSCLC
# SF-295 CNS = test system: SF-295 CNS
# HCC-2998 colon = test system: HCC-2998 colon
# SK-OV-3 ovarian = test system: SK-OV-3 ovarian
# HOP-92 NSCLC = test system: HOP-92 NSCLC
# COLO 205 colon = test system: COLO 205 colon
# NCI-H226 lung = test system: NCI-H226 lung
# DU-145 prostate = test system: DU-145 prostate
# KM12 colon = test system: KM12 colon
# K-562 leukemia = test system: K-562 leukemia
# SK-MEL-2 melanoma = test system: SK-MEL-2 melanoma
# MDA-MB-435 = test system: MDA-MB-435
# UACC-62 melanoma = test system: UACC-62 melanoma
# HT29 colon = test system: HT29 colon
# SF-268 CNS = test system: SF-268 CNS
# SK-MEL-28 melanoma = test system: SK-MEL-28 melanoma
# CCRF-CEM leukemia = test system: CCRF-CEM leukemia
# NCI-H522 lung = test system: NCI-H522 lung
# SF-539 CNS = test system: SF-539 CNS
# M14 melanoma = test system: M14 melanoma
# HCT-116 colon = test system: HCT-116 colon
# SK-MEL-5 melanoma = test system: SK-MEL-5 melanoma
# A498 renal = test system: A498 renal
# U251 CNS = test system: U251 CNS
# MALME-3M melanoma = test system: MALME-3M melanoma
# SN12C renal = test system: SN12C renal
# OVCAR-3 ovarian = test system: OVCAR-3 ovarian
# SNB-19 CNS = test system: SNB-19 CNS
# HCT-15 colon = test system: HCT-15 colon
# SW-620 colon = test system: SW-620 colon
# OVCAR-4 ovarian = test system: OVCAR-4 ovarian
# BT-549 breast = test system: BT-549 breast
# SR leukemia = test system: SR leukemia
# NCI-H460 lung = test system: NCI-H460 lung
# RPMI-8226 leukemia = test system: RPMI-8226 leukemia
# MDA-MB-468 breast = test system: MDA-MB-468 breast
# T-47D breast = test system: T-47D breast
# OVCAR-5 ovarian = test system: OVCAR-5 ovarian
# ACHN renal = test system: ACHN renal
# UO-31 renal = test system: UO-31 renal
# RXF 393 renal = test system: RXF 393 renal
# CAKI-1 renal = test system: CAKI-1 renal
# HOP-62 NSCLC = test system: HOP-62 NSCLC
# 786-0 renal = test system: 786-0 renal
# MDA-MB-231 breast = test system: MDA-MB-231 breast
# PC-3 prostate = test system: PC-3 prostate
# MCF7 breast = test system: MCF7 breast
# NCI-H23 lung = test system: NCI-H23 lung
# OVCAR-8 ovarian = test system: OVCAR-8 ovarian
# UACC-257 melanoma = test system: UACC-257 melanoma
# A549 NSCLC = test system: A549 NSCLC
structure (smiles),measurement,setting,value
Cc1cc(=O)oc2cc(OCCCOc3ccc(/C=C/C(=O)Nc4ccccc4N)cc3)ccc12,GI50,IGROV1 ovarian,1.28 µM
same,TGI,IGROV1 ovarian,> 100 µM
same,GI50,EKVX NSCLC,3.5 µM
same,TGI,EKVX NSCLC,> 100 µM
same,GI50,SF-295 CNS,3.42 µM
same,TGI,SF-295 CNS,> 100 µM
same,GI50,HCC-2998 colon,3.17 µM
same,TGI,HCC-2998 colon,> 100 µM
same,GI50,SK-OV-3 ovarian,5.29 µM
same,TGI,SK-OV-3 ovarian,> 100 µM
same,GI50,HOP-92 NSCLC,3.91 µM
same,TGI,HOP-92 NSCLC,> 100 µM
same,GI50,COLO 205 colon,2.14 µM
same,TGI,COLO 205 colon,5.81 µM
same,GI50,NCI-H226 lung,2.45 µM
same,TGI,NCI-H226 lung,> 100 µM
same,GI50,DU-145 prostate,4.71 µM
same,TGI,DU-145 prostate,> 100 µM
same,GI50,KM12 colon,3.9 µM
same,TGI,KM12 colon,> 100 µM
same,GI50,K-562 leukemia,0.817 µM
same,TGI,K-562 leukemia,> 100 µM
same,GI50,SK-MEL-2 melanoma,3.78 µM
same,TGI,SK-MEL-2 melanoma,> 100 µM
same,GI50,MDA-MB-435,4.42 µM
same,TGI,MDA-MB-435,> 100 µM
same,GI50,UACC-62 melanoma,2.79 µM
same,TGI,UACC-62 melanoma,> 100 µM
same,GI50,HT29 colon,4.8 µM
same,TGI,HT29 colon,> 100 µM
same,GI50,SF-268 CNS,1.95 µM
same,TGI,SF-268 CNS,> 100 µM
same,GI50,SK-MEL-28 melanoma,3.6 µM
same,TGI,SK-MEL-28 melanoma,> 100 µM
same,GI50,CCRF-CEM leukemia,0.31 µM
same,TGI,CCRF-CEM leukemia,1.91 µM
same,GI50,NCI-H522 lung,2.79 µM
same,TGI,NCI-H522 lung,> 100 µM
same,GI50,SF-539 CNS,2.22 µM
same,TGI,SF-539 CNS,> 100 µM
same,GI50,M14 melanoma,3.16 µM
same,TGI,M14 melanoma,> 100 µM
same,GI50,HCT-116 colon,2.24 µM
same,TGI,HCT-116 colon,> 100 µM
same,GI50,SK-MEL-5 melanoma,0.716 µM
same,TGI,SK-MEL-5 melanoma,2.06 µM
same,GI50,A498 renal,2.34 µM
same,TGI,A498 renal,6.7 µM
same,GI50,U251 CNS,5.49 µM
same,TGI,U251 CNS,> 100 µM
same,GI50,MALME-3M melanoma,3.27 µM
same,TGI,MALME-3M melanoma,> 100 µM
same,GI50,SN12C renal,2.22 µM
same,TGI,SN12C renal,> 100 µM
same,GI50,OVCAR-3 ovarian,2.51 µM
same,TGI,OVCAR-3 ovarian,> 100 µM
same,GI50,SNB-19 CNS,3.72 µM
same,TGI,SNB-19 CNS,> 100 µM
same,GI50,HCT-15 colon,2.4 µM
same,TGI,HCT-15 colon,> 100 µM
same,GI50,SW-620 colon,3.6 µM
same,TGI,SW-620 colon,> 100 µM
same,GI50,OVCAR-4 ovarian,2.82 µM
same,TGI,OVCAR-4 ovarian,> 100 µM
same,GI50,BT-549 breast,0.923 µM
same,TGI,BT-549 breast,3.27 µM
same,GI50,SR leukemia,1.81 µM
same,TGI,SR leukemia,> 100 µM
same,GI50,NCI-H460 lung,1.79 µM
same,TGI,NCI-H460 lung,> 100 µM
same,GI50,RPMI-8226 leukemia,0.276 µM
same,TGI,RPMI-8226 leukemia,2.35 µM
same,GI50,MDA-MB-468 breast,1.94 µM
same,TGI,MDA-MB-468 breast,8.14 µM
same,GI50,T-47D breast,0.749 µM
same,TGI,T-47D breast,> 100 µM
same,GI50,OVCAR-5 ovarian,4.34 µM
same,TGI,OVCAR-5 ovarian,> 100 µM
same,GI50,ACHN renal,4.5 µM
same,TGI,ACHN renal,> 100 µM
same,GI50,UO-31 renal,0.775 µM
same,TGI,UO-31 renal,> 100 µM
same,GI50,RXF 393 renal,4.16 µM
same,TGI,RXF 393 renal,> 100 µM
same,GI50,CAKI-1 renal,3.38 µM
same,TGI,CAKI-1 renal,> 100 µM
same,GI50,HOP-62 NSCLC,4.93 µM
same,TGI,HOP-62 NSCLC,> 100 µM
same,GI50,786-0 renal,3.13 µM
same,TGI,786-0 renal,> 100 µM
same,GI50,MDA-MB-231 breast,3.33 µM
same,TGI,MDA-MB-231 breast,> 100 µM
same,GI50,PC-3 prostate,3.07 µM
same,TGI,PC-3 prostate,> 100 µM
same,GI50,MCF7 breast,0.702 µM
same,TGI,MCF7 breast,> 100 µM
same,GI50,NCI-H23 lung,3.64 µM
same,TGI,NCI-H23 lung,> 100 µM
same,GI50,OVCAR-8 ovarian,4.18 µM
same,TGI,OVCAR-8 ovarian,> 100 µM
same,GI50,UACC-257 melanoma,3.24 µM
same,TGI,UACC-257 melanoma,> 100 µM
same,GI50,A549 NSCLC,3.31 µM
same,TGI,A549 NSCLC,> 100 µM
